Key:
Conditions in all cases: after 10, 20, 40 and 60 min at all dilutions 1:100, 1:200, 1:400, 1:800
[1] = tested on: E. coli; assay: Antimicrobial testing by agar dilution, E. coli; type: cell-based, Escherichia coli
Procedure: (§1) The antimicrobial properties of the 3-cyano-2-ethoxy-9-(2-nitrobenzylidene)-4-(2-nitrophenyl)-6,7,8,9-tetrahydro-5H-cyclohepta[b]pyridine was studied by the method of agar dilution. Test solutions of each compound was prepared in concentration of 1% using dimethylformamide as a solvent then they are diluted in physiological solution to obtain the final experimental dilutions 1:100, 1:200, 1:400, 1:800. The effect of these substances are compared with furacillin in a controlable study. The testing microbes used were gram positive bacteria St. Aereus, gram negative bacteria E. coli, Ps. aeruginosa and Candida albicans fungi were taken.
(§2) The experiments used for this survey were meat-pentonlu agar (EPA) for cultivation of bacteria and Saburo environment for fungi. Each experiment used 1 ml of test solution on each plate 500 min. Add 2 drops of emulsified with microbes feel. All experimental samples were taken from the agar after 10, 20, 40, 60 minutes in the environment on the basis of Patrk planted. Bacteria were cultivated at a temperature of 37° C. for 1 day and the mushroom was kept in a thermostat for […] at a temperature of 28° C. in the. Then results were checked.

[2] = tested on: St. Aereus; assay: Antimicrobial testing by agar dilution, St. Aereus; type: cell-based, Staphylococcus aureus
Procedure: as §1, §2

[3] = tested on: Candida albicans; assay: Antimicrobial testing by agar dilution, Candida albicans; type: cell-based
Procedure: as §1, §2

[4] = tested on: Ps. aeruginosa; assay: Antimicrobial testing by agar dilution, Ps. aeruginosa; type: cell-based, Pseudomonas aeruginosa
Procedure: as §1, §2

Measured: inhibition activity (in words)

CCOc1nc2c(c(-c3ccccc3[N+](=O)[O-])c1C#N)CCCCC2=Cc1ccccc1[N+](=O)[O-] [3-cyano-2-ethoxy-9-(2-nitrobenzylidene)-4-(2-nitrophenyl)-6,7,8,9-tetrahydro-5H-cyclohepta[b]pyridine]
most higher inhibition activity: all assays above

Reference: patent publication US11976043B1, “3-cyano-2-ethoxy-9-(2-nitrobenzylidene)-4-(2-nitrophenyl)-6,7,8,9-tetrahydro-5H-cyclohepta[b]pyridine as an antimicrobial compound” (KING FAISAL UNIVERSITY, priority 2023, dated 2024)
